According to ChEMBL document CHEMBL1201862, “PubChem BioAssay data set” (2004):
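A five-concentration, 48-hour dose response in 96-well plates underlies each endpoint, interpolated linearly between surrounding concentrations. GI50 marks 50% less growth.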 Calls of active or inactive are those of the source. Cut-off read from the data, not from the text of the source: active = GI50 up to about 1.1 µM and inactive = higher.

Experiments:
Assay in all cases: NCI tumour cell line growth inhibition, 48 h
[1] = tested on: 786-0
[2] = tested on: A498
[3] = tested on: A549
[4] = tested on: ACHN
[5] = tested on: CAKI-1
[6] = tested on: CCRF-CEM
[7] = tested on: COLO 205
[8] = tested on: DMS-273
[9] = tested on: EKVX
[10] = tested on: HCC 2998
[11] = tested on: HCT-116
[12] = tested on: HCT-15
[13] = tested on: HL-60
[14] = tested on: HOP-62
[15] = tested on: HT-29
[16] = tested on: IGROV-1
[17] = tested on: K562
[18] = tested on: KM-20L2
[19] = tested on: KM12
[20] = tested on: LOX IMVI
[21] = tested on: LXFL 529
[22] = tested on: M14
[23] = tested on: MOLT-4
[24] = tested on: NCI-H226
[25] = tested on: NCI-H23
[26] = tested on: NCI-H460
[27] = tested on: NCI-H522
[28] = tested on: OVCAR-3
[29] = tested on: OVCAR-4
[30] = tested on: OVCAR-5
[31] = tested on: OVCAR-8
[32] = tested on: RPMI-8226
[33] = tested on: RXF 393
[34] = tested on: SF-268
[35] = tested on: SF-295
[36] = tested on: SF-539
[37] = tested on: SK-MEL-28
[38] = tested on: SK-MEL-2
[39] = tested on: SN12C
[40] = tested on: SNB-19
[41] = tested on: SNB-75
[42] = tested on: SNB-78
[43] = tested on: SR
[44] = tested on: SW-620
[45] = tested on: TK-10
[46] = tested on: U-251
[47] = tested on: UACC-257
[48] = tested on: UACC-62
[49] = tested on: UO-31
[50] = tested on: BT-549
[51] = tested on: DU-145
[52] = tested on: HOP-92
[53] = tested on: Hs-578T
[54] = tested on: MCF7
[55] = tested on: MDA-MB-231
[56] = tested on: MDA-MB-435
[57] = tested on: MDA-N
[58] = tested on: Malme-3M
[59] = tested on: NCI/ADR-RES
[60] = tested on: PC-3
[61] = tested on: SK-MEL-5
[62] = tested on: SK-OV-3
[63] = tested on: T47D

In the case of O=C(Nc1ccc(/N=N/c2ccccc2)cc1)Sc1ccccc1C(=O)O, the GI50 [1] is reported as > 100 µM (inactive), the GI50 [2] is reported as > 100 µM (inactive) and the GI50 [3] is reported as > 100 µM (inactive). For the same compound, the GI50 [4] was > 100 µM (inactive), the GI50 [5] was > 100 µM (inactive) and the GI50 [6] was > 10 µM (inactive). The GI50 [7] was > 100 µM (inactive), the GI50 [8] was > 100 µM (inactive) and the GI50 [9] was > 100 µM (inactive). For the same compound, the GI50 [10] was > 100 µM (inactive), the GI50 [11] was 57.1 µM (inactive) and the GI50 [12] was > 100 µM. For the same compound, the GI50 [13] was 1.7 µM (inactive), the GI50 [14] was > 100 µM (inactive) and the GI50 [15] was > 100 µM (inactive). For the same compound, the GI50 [16] was 0.7 µM (active), the GI50 [17] was > 100 µM (inactive) and the GI50 [18] was > 100 µM (inactive). The GI50 [19] was > 100 µM (inactive), the GI50 [20] was > 100 µM (inactive) and the GI50 [21] was > 100 µM (inactive). The GI50 [22] was > 100 µM (inactive), the GI50 [23] was > 100 µM (inactive) and the GI50 [24] was > 100 µM (inactive). The GI50 [25] was > 100 µM (inactive), the GI50 [26] was > 100 µM (inactive) and the GI50 [27] was > 100 µM (inactive). The GI50 [28] was > 100 µM (inactive), the GI50 [29] was > 100 µM (inactive) and the GI50 [30] was > 100 µM (inactive). The GI50 [31] was > 100 µM (inactive), the GI50 [32] was > 100 µM (inactive) and the GI50 [33] was 71.3 µM (inactive). For the same compound, the GI50 [34] was > 100 µM (inactive), the GI50 [35] was > 100 µM (inactive) and the GI50 [36] was > 100 µM (inactive). For the same compound, the GI50 [37] was > 100 µM (inactive), the GI50 [38] was > 100 µM (inactive) and the GI50 [39] was > 100 µM (inactive). The GI50 [40] was > 100 µM (inactive), the GI50 [41] was > 100 µM (inactive) and the GI50 [42] was > 100 µM (inactive). The GI50 [43] was > 100 µM (inactive), the GI50 [44] was > 100 µM (inactive) and the GI50 [45] was > 100 µM (inactive). For the same compound, the GI50 [46] was > 100 µM (inactive), the GI50 [47] was > 100 µM (inactive) and the GI50 [48] was > 100 µM (inactive). The GI50 [49] was > 100 µM (inactive).
With CN(CC(N)=O)C(=O)N(CCCl)N=O [SARCNU] the GI50 [1] was 98.4 µM (inactive), the GI50 [2] was > 100 µM (inactive) and the GI50 [3] was > 100 µM (inactive). The GI50 [4] was > 100 µM (inactive), the GI50 [50] was > 100 µM (inactive) and the GI50 [5] was > 100 µM (inactive). The GI50 [6] was > 81.8 µM (inactive), the GI50 [7] was > 100 µM (inactive) and the GI50 [51] was > 100 µM (inactive). The GI50 [9] was > 100 µM (inactive), the GI50 [10] was > 100 µM (inactive) and the GI50 [11] was > 100 µM (inactive). The GI50 [12] was > 100 µM, the GI50 [13] was > 100 µM (inactive) and the GI50 [14] was > 100 µM (inactive). The GI50 [52] was > 77.6 µM (inactive), the GI50 [15] was > 100 µM (inactive) and the GI50 [53] was > 100 µM (inactive). For the same compound, the GI50 [16] was > 100 µM (inactive), the GI50 [17] was > 100 µM (inactive) and the GI50 [19] was > 100 µM (inactive). The GI50 [20] was > 100 µM (inactive), the GI50 [22] was > 100 µM (inactive) and the GI50 [54] was > 100 µM (inactive). The GI50 [55] was > 100 µM (inactive), the GI50 [56] was > 100 µM (inactive) and the GI50 [57] was > 100 µM (inactive). The GI50 [23] was > 100 µM (inactive), the GI50 [58] was > 100 µM (inactive) and the GI50 [24] was 67.9 µM (inactive). For the same compound, the GI50 [25] was > 100 µM (inactive), the GI50 [26] was 41.1 µM (inactive) and the GI50 [27] was > 100 µM (inactive). The GI50 [59] was > 100 µM (inactive), the GI50 [28] was > 100 µM (inactive) and the GI50 [29] was > 100 µM (inactive). The GI50 [30] was > 100 µM (inactive), the GI50 [31] was > 100 µM (inactive) and the GI50 [60] was > 100 µM (inactive). The GI50 [32] was > 100 µM (inactive), the GI50 [33] was > 100 µM (inactive) and the GI50 [34] was 27.2 µM (inactive). The GI50 [35] was > 76.7 µM (inactive), the GI50 [36] was 38.3 µM (inactive) and the GI50 [37] was > 100 µM (inactive). The GI50 [38] was > 100 µM (inactive), the GI50 [61] was > 100 µM (inactive) and the GI50 [62] was > 83.9 µM (inactive). For the same compound, the GI50 [39] was > 100 µM (inactive), the GI50 [40] was > 83.9 µM (inactive) and the GI50 [41] was 38.6 µM (inactive). For the same compound, the GI50 [43] was > 71.1 µM (inactive), the GI50 [44] was > 100 µM (inactive) and the GI50 [63] was > 100 µM (inactive). The GI50 [45] was > 100 µM (inactive), the GI50 [46] was > 100 µM (inactive) and the GI50 [47] was > 100 µM (inactive). The GI50 [48] was > 56.4 µM (inactive) and the GI50 [49] was > 100 µM (inactive).
